Assay results reported in patent publication US20240002395A1, “COMPOUNDS AND THEIR USE FOR TREATING NEUROPATHIC PAIN” (The Johns Hopkins University, priority 2020, published 2024).

Key:
human MrgprX1 = molecular target: T1, human MrgprX1 (Homo sapiens, UniProt Q96LB2); assay: MrgprX1 positive allosteric modulator (PAM) calcium FLIPR assay in HEK293 cells; type: cell-based; conditions: PAM activity in presence of EC20 concentration of BAM8-22; HEK293 cells stably transfected with human MrgprX1
T1 construct: expressed in transfected cells
Protocol: HEK293 cells stably transfected with human MrgprX1 were plated onto poly-D-lysine-coated, black-walled, 96-well plates at a seeding density of 12,000 cells/well and grown for two days. On the day of the experiment, cells were incubated with Fluo-4 AM 2 μM, pluronic acid 0.04% and Trypan Red 1% in HBSS (pH 7.4, 100 μL) for 1 h at 37° C. For each different passage of cells, a BAM8-22 dose response was first conducted and the BAM8-22 EC20 determined. Test compounds were then dissolved and serially diluted in DMSO, further diluted with Trypan Red (1%)-containing HBSS (50 μL) and added to cells (0.33% DMSO concentration by volume) to first monitor for agonist activity. After 2.5 min, BAM8-22 at 4-fold EC20 (50 μL) was added to cells (0.25% DMSO concentration by volume) and the cells imaged on the FLIPR for an additional 2 minutes to monitor the test compounds for PAM activity. Finally, data were normalized to fluorescence signals obtained from 250 nM of BAM8-22 (maximum) and BAM8-22 at its EC20 concentration (minimum). EC50 of a test compound was defined as the concentration required to provoke a response halfway between the minimum and maximum response in the presence of EC20 concentration of BAM8-22.

T1 sequence (Q96LB2 whole entry): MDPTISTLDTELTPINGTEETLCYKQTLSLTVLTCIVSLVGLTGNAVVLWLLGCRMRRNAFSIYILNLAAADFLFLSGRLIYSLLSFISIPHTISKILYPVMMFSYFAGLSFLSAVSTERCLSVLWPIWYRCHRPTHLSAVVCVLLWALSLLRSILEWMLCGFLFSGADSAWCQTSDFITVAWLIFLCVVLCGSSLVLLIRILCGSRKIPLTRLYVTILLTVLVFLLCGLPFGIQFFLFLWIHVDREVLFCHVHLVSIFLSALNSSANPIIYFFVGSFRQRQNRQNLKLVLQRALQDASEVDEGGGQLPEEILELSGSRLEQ

| SMILES | EC50 (human MrgprX1) | melting point |
| --- | --- | --- |
| Cc1nc(Oc2ccccc2)c2ccsc2n1 [Compound 7ay, 2-methyl-4-phenoxythieno[2,3-d]pyrimidine] | 6000 nM | 100 °C |
| Cc1ccccc1Oc1ncnc2oc(-c3ccccc3)cc12 [B, 6-Phenyl-4-(o-tolyloxy)furo[2,3-d]pyrimidine, reference compound] | 1000 nM |  |
| CC(C)(C)c1sc2ncnc(OC3CCCCC3(C)C)c2c1-c1ccc(Cl)c(Cl)c1 (stereo not shown) [Compound 7ah, 6-tert-butyl-5-(3,4-dichlorophenyl)-4-(2,2-dimethylcyclohexyloxy)thieno[2,3-d]pyrimidine] | 300 nM | 128 °C |
| CN1CCCC(Oc2ncnc3sc(C(C)(C)C)c(-c4ccc(Cl)c(Cl)c4)c23)C1 (stereo not shown) [Compound 7ab, 6-tert-butyl-5-(3,4-dichlorophenyl)-4-(1-methylpiperidin-3-yloxy)thieno[2,3-d]pyrimidine] | 6000 nM |  |
| CC(C)(C)c1sc2ncnc(OC3CCC3)c2c1-c1ccc(Cl)c(Cl)c1 [Compound 7y, 6-tert-butyl-4-cyclobutoxy-5-(3,4-dichlorophenyl)thieno[2,3-d]pyrimidine] | 7000 nM | 146 °C |
| Cc1ccc(Oc2ncnc3sccc23)cc1 [E, 4-(p-Tolyloxy)thieno[2,3-d]pyrimidine, reference compound] | 900 nM |  |
| CC(C)(C)c1sc2ncnc(OC3CCCCC3)c2c1-c1ccc(Cl)c(Cl)c1 [Compound 7aa, 6-tert-butyl-4-(cyclohexyloxy)-5-(3,4-dichlorophenyl)thieno[2,3-d]pyrimidine] | 100 nM | 121 °C |
| CC(C)(C)c1sc2ncnc(OC3(C(F)(F)F)CCCCC3)c2c1-c1ccc(Cl)c(Cl)c1 [Compound 7ai, 6-tert-butyl-5-(3,4-dichlorophenyl)-4-(1-(trifluoromethyl)cyclohexyloxy)thieno[2,3-d]pyrimidine] | > 10000 nM | 142 °C |
| CC(C)(C)c1sc2ncnc(Oc3ccccc3OC(F)(F)F)c2c1-c1ccc(Cl)cc1 [Compound 7an, 6-tert-butyl-5-(4-chlorophenyl)-4-(2-(trifluoromethoxy)phenoxy)thieno[2,3-d]pyrimidine] | 80 nM | 136 °C |
| CC(C)(C)c1sc2ncnc(Oc3ccccc3OC(F)(F)F)c2c1-c1ccc(F)c(F)c1 [Compound 7am, 6-tert-butyl-5-(3,4-difluorophenyl)-4-(2-(trifluoromethoxy)phenoxy)thieno[2,3-d]pyrimidine] | 70 nM | 146 °C |
| CC(C)(C)c1sc2ncnc(Oc3c(F)cccc3F)c2c1-c1ccc(F)c(F)c1 [Compound 7ak, 6-tert-butyl-4-(2,6-difluorophenoxy)-5-(3,4-difluorophenyl)thieno[2,3-d]pyrimidine] | 70 nM | 185 °C |
| CC1CCCCC1Oc1ncnc2sc(C(C)(C)C)c(-c3ccc(Cl)c(Cl)c3)c12 (mixture of isomers) [Compound 7ac, 6-tert-butyl-5-(3,4-dichlorophenyl)-4-(2-methylcyclohexyloxy)thieno[2,3-d]pyrimidine] | 100 nM |  |
| CC(C)(C)c1sc2ncnc(OC3CCCCC3F)c2c1-c1ccc(Cl)c(Cl)c1 (stereo not shown) [Compound 7ag, 6-tert-butyl-5-(3,4-dichlorophenyl)-4-(2-fluorocyclohexyloxy)thieno[2,3-d]pyrimidine] | 100 nM | 144 °C |
| CC(C)(C)c1sc2ncnc(Oc3c(F)cccc3F)c2c1-c1cccc(F)c1 [Compound 7aw, 6-tert-butyl-4-(2,6-difluorophenoxy)-5-(3-fluorophenyl)thieno[2,3-d]pyrimidine] | 100 nM | 180 °C |
| CC(C)(C)c1sc2ncnc(OC3CCCCCC3)c2c1-c1ccc(Cl)c(Cl)c1 [Compound 7ae, 6-tert-butyl-4-(cycloheptyloxy)-5-(3,4-dichlorophenyl)thieno[2,3-d]pyrimidine] | 400 nM |  |
| CCOC(=O)c1c(C(C)(C)C)sc2ncnc(Oc3c(F)cccc3OC(F)(F)F)c12 [Compound 7be, Ethyl 6-(tert-butyl)-4-(2-fluoro-6-(trifluoromethoxy)phenoxy)thieno[2,3 d]pyrimidine-5-carboxylate] | 60 nM |  |
| CC(C)(C)c1sc2ncnc(Oc3ccccc3F)c2c1-c1ccc(F)c(F)c1 [Compound 7aj, 6-tert-butyl-5-(3,4-difluorophenyl)-4-(2-fluorophenoxy)thieno[2,3-d]pyrimidine] |  | 171 °C |
| CC1CCCN1c1c(C(C)(C)C)sc2ncnc(Oc3c(F)cccc3OC(F)(F)F)c12 (stereo not shown) [Compound 7bg, 6-(tert-butyl)-4-(2-fluoro-6-(trifluoromethoxy)phenoxy)-5-(2-methylpyrrolidin-1-yl)thieno[2,3-d]pyrimidine] | 70 nM |  |
| Cc1cccc(Oc2ncnc3oc(-c4ccccc4)cc23)c1C [C, 4-(2,3-Dimethylphenoxy)-6-phenylfuro[2,3-d]pyrimidine, reference compound] | 70000 nM |  |
| CN(C)C(=O)COc1ncnc2scc(-c3ccc(F)cc3)c12 [Compound A, 2-((5-(4-Fluorophenyl)thieno[2,3-d]pyrimidin-4-yl)oxy)-N,N-dimethylacetamide, reference compound] | > 100000 nM |  |

Second part, the molecule after the results:

| EC50 (human MrgprX1) | melting point | SMILES |
| --- | --- | --- |
| 3000 nM | 60 °C | CC(=O)c1ccccc1Oc1ncnc2sc(C(C)(C)C)c(-c3ccc(Cl)c(Cl)c3)c12 [Compound 7u, 1-(2-(6-tert-butyl-5-(3,4-dichlorophenyl)thieno[2,3-d]pyrimidin-4-yloxy)phenyl)ethanone] |
| 30000 nM | 207 °C | CC(C)(C)c1sc2ncnc(Oc3cccnc3N)c2c1-c1ccc(Cl)c(Cl)c1 [Compound 7j, 3-(6-tert-butyl-5-(3,4-dichlorophenyl)thieno[2,3-d]pyrimidin-4-yloxy)pyridin-2-amine] |
| 30 nM | 176 °C | CC(C)(C)c1sc2ncnc(Oc3c(F)cccc3F)c2c1-c1ccc(Cl)cc1 [Compound 7ap, 6-tert-butyl-5-(4-chlorophenyl)-4-(2,6-difluorophenoxy)thieno[2,3-d]pyrimidine] |
| 70 nM | 186 °C | CC(C)(C)c1sc2ncnc(Oc3c(F)cccc3F)c2c1-c1ccc(F)cc1 [Compound 7at, 6-tert-butyl-4-(2,6-difluorophenoxy)-5-(4-fluorophenyl)thieno[2,3-d]pyrimidine] |
| 400 nM | 151 °C | Cc1ccccc1Oc1ncnc2sc(C(C)(C)C)c(-c3ccc(Cl)c(Cl)c3)c12 [Compound 7t, 6-tert-butyl-5-(3,4-dichlorophenyl)-4-(o-tolyloxy)thieno[2,3-d]pyrimidine] |
|  | 173 °C | COc1ncccc1Oc1ncnc2sc(C(C)(C)C)c(-c3ccc(Cl)c(Cl)c3)c12 [Compound 7i, 6-tert-butyl-5-(3,4-dichlorophenyl)-4-(2-methoxypyridin-3-yloxy)thieno[2,3-d]pyrimidine] |
| 2000 nM | 179 °C | CC(C)(C)c1sc2ncnc(Oc3ccc(F)cc3)c2c1-c1ccc(Cl)c(Cl)c1 [Compound 7p, 6-tert-butyl-5-(3,4-dichlorophenyl)-4-(4-fluorophenoxy)thieno[2,3-d]pyrimidine] |
| > 10000 nM | 121 °C | CC(C)(C)c1sc2ncnc(Oc3cccc(OC(F)(F)F)c3)c2c1-c1ccc(Cl)c(Cl)c1 [Compound 7d, 6-tert-butyl-5-(3,4-dichlorophenyl)-4-(3-(trifluoromethoxy)phenoxy)thieno[2,3-d]pyrimidine] |
| 100 nM | 163 °C | CC(C)(C)c1sc2ncnc(Oc3ccccc3F)c2c1-c1ccc(Cl)c(Cl)c1 [Compound 7m, 6-tert-butyl-5-(3,4-dichlorophenyl)-4-(2-fluorophenoxy)thieno[2,3-d]pyrimidine] |
| 600 nM | 148 °C | CC(C)(C)c1sc2ncnc(Oc3ccccc3)c2c1-c1ccc(Cl)c(Cl)c1 [Compound 7l, 6-tert-butyl-5-(3,4-dichlorophenyl)-4-phenoxythieno[2,3-d]pyrimidine] |
| 200 nM | 165 °C | CC(C)(C)c1sc2ncnc(Sc3ccccc3OC(F)(F)F)c2c1-c1ccc(Cl)c(Cl)c1 [Compound 7ax, 6-tert-butyl-5-(3,4-dichlorophenyl)-4-(2-(trifluoromethoxy)phenylthio)thieno[2,3-d]pyrimidine] |
| > 10000 nM | 165 °C | CC(C)Oc1ncnc2sc(C(C)(C)C)c(-c3ccc(Cl)c(Cl)c3)c12 [Compound 7w, 6-tert-butyl-5-(3,4-dichlorophenyl)-4-isopropoxythieno[2,3-d]pyrimidine] |
| > 100000 nM |  | CC(C)(C)c1sc2ncnc(Oc3ccc([N+](=O)[O-])cc3OC(F)(F)F)c2c1-c1ccc(Cl)c(Cl)c1 [Compound 7f, 6-tert-butyl-5-(3,4-dichlorophenyl)-4-(4-nitro-2-(trifluoromethoxy)phenoxy)thieno[2,3-d]pyrimidine] |
| 500 nM |  | CC(C)(C)c1sc2ncnc(Oc3ccccc3C#N)c2c1-c1ccc(Cl)c(Cl)c1 [Compound 7v, 2-(6-tert-butyl-5-(3,4-dichlorophenyl)thieno[2,3-d]pyrimidin-4-yloxy)benzonitrile] |
